Assay results from ChEMBL document CHEMBL1149945, “Synthesis and structure-activity relationships of potent retinoid X receptor ligands” (Bioorg Med Chem Lett, 1997).
pEC50, pKi: −log10 of the molar value.

Legend:
[1] = target: T1, Retinoic acid receptor RXR-gamma (Mus musculus) (UniProt P28705); test: Percent efficacy for Retinoid X receptor RXR gamma in CV-1 cell transcriptional activation assay; type: cell-based
T1 sequence (whole entry): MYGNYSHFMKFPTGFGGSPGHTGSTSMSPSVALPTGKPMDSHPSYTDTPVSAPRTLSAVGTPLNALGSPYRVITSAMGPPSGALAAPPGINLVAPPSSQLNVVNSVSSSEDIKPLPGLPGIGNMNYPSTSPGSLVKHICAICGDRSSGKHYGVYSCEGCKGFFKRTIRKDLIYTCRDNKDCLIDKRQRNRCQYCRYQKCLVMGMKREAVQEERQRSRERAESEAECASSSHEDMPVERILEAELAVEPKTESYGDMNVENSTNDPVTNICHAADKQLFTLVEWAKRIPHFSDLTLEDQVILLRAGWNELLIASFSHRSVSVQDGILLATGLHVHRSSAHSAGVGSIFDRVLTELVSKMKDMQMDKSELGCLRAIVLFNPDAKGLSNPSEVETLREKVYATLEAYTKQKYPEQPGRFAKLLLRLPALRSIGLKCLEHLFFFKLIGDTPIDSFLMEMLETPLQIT

[2] = target: T2, Retinoic acid receptor RXR-beta (Mus musculus, UniProt P28704); test: Inhibition of [3H]9-cis-RA binding to Retinoid X receptor RXR beta
T2 sequence (P28704 whole entry): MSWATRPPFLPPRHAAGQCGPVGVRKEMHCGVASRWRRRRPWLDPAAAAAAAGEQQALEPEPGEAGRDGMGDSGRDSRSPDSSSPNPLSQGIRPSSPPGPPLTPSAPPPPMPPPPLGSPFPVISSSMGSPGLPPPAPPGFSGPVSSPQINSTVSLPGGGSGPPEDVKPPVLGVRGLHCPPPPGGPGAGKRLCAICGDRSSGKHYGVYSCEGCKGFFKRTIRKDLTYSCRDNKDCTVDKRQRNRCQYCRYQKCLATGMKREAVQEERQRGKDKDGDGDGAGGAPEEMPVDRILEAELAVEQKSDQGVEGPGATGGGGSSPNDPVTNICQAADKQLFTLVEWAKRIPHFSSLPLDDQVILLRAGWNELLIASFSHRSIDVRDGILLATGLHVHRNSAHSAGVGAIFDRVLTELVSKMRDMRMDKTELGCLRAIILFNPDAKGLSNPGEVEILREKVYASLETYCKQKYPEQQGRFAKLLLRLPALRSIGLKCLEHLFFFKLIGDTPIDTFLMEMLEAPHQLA

[3] = target: T3, Retinoic acid receptor beta (Homo sapiens, UniProt P10826); test: Inhibition of [3H]ATRA binding to retinoic acid receptor RAR beta
T3 sequence (P10826 whole entry): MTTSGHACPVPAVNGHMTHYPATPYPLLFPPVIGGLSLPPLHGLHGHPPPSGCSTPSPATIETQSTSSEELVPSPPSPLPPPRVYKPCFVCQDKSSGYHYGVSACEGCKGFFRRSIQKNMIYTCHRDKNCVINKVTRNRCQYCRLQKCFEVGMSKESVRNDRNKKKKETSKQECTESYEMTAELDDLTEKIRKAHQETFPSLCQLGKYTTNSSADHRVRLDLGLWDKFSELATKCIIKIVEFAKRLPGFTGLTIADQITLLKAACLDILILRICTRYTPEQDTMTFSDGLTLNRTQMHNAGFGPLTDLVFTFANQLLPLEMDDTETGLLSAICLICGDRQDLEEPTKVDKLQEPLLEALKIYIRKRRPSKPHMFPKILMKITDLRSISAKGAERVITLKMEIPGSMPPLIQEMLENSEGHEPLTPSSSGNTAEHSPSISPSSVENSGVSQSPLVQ

[4] = target: T4, Retinoic acid receptor gamma (Homo sapiens, UniProt P13631); test: Effective potency in transcriptional activation assay in CV-1 cells expressing retinoic acid receptor RAR gamma; type: functional, cell-based
T4 sequence (P13631 whole entry): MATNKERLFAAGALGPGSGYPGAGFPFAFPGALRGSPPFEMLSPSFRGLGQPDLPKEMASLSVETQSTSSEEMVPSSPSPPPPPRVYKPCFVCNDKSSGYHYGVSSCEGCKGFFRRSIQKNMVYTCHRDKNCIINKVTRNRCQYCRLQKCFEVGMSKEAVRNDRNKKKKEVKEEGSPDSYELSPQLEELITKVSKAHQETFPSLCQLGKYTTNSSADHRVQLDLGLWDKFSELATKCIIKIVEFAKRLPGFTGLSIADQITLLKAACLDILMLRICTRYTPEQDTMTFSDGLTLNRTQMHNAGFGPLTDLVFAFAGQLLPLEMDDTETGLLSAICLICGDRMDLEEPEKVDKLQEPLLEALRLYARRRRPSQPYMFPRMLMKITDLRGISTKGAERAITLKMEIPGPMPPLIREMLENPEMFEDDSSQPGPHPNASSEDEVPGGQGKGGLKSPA

[5] = target: T5, Retinoic acid receptor alpha (Homo sapiens, UniProt P10276); test: Inhibition of [3H]ATRA binding to retinoic acid receptor RAR alpha
T5 sequence (P10276 whole entry): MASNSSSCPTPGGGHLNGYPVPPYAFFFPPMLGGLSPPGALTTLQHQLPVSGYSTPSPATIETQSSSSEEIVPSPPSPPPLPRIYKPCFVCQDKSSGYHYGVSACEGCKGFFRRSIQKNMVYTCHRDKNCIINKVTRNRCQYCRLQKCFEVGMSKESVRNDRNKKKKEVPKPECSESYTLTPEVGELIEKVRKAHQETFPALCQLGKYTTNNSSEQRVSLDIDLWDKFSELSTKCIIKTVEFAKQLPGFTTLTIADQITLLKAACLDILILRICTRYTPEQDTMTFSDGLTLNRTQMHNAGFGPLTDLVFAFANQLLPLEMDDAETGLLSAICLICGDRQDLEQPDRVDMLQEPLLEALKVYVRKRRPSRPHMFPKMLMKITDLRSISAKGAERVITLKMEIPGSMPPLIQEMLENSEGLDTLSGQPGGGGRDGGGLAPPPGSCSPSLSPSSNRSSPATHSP

[6] = target: T4, Retinoic acid receptor gamma; test: Inhibition of [3H]-ATRA binding to Retinoic acid receptor RAR gamma
[7] = target: T6, Retinoic acid receptor RXR-gamma (Mus musculus, UniProt P28705); test: (§1) Effective potency in transcriptional activation assay in CV-1 cells expressing Retinoid X receptor RXR gamma; type: cell-based
T6 sequence (P28705 whole entry): T1 sequence (whole entry)

[8] = target: T2, Retinoic acid receptor RXR-beta; test: Effective potency in transcriptional activation assay in CV-1 cells expressing Retinoid X receptor RXR beta; type: functional, cell-based
[9] = target: T6, Retinoic acid receptor RXR-gamma; test: Inhibition of [3H]9-cis-RA binding to Retinoid X receptor RXR gamma
[10] = target: T5, Retinoic acid receptor alpha; test: Effective potency in transcriptional activation assay in CV-1 cells expressing retinoic acid receptor RAR alpha; Not active; type: functional, cell-based
[11] = target: T3, Retinoic acid receptor beta; test: Effective potency in transcriptional activation assay in CV-1 cells expressing retinoic acid receptor RAR beta; type: functional, cell-based
[12] = target: T7, Retinoic acid receptor RXR-alpha (Homo sapiens, UniProt P19793); test: Effective potency in transcriptional activation assay in CV-1 cells expressing Retinoid X receptor RXR alpha; type: functional, cell-based
T7 sequence (P19793 whole entry): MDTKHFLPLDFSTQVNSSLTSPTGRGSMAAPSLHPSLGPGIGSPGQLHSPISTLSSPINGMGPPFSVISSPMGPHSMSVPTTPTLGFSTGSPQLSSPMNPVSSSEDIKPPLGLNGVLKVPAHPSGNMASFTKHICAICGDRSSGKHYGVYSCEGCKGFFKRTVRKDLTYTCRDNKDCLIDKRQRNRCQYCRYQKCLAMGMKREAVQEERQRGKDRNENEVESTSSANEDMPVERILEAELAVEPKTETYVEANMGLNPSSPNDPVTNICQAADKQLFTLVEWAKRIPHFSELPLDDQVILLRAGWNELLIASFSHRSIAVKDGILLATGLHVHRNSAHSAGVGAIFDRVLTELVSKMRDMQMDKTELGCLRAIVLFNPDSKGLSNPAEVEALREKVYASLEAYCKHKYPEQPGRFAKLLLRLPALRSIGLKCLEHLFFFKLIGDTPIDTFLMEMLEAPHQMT

[13] = target: T8, Retinoic acid receptor RXR-beta (Mus musculus) (UniProt P28704); test: Percent efficacy for Retinoid X receptor RXR beta in CV-1 cell transcriptional activation assay; type: functional, cell-based
T8 sequence (whole entry): T2 sequence (P28704 whole entry)

[14] = target: T7, Retinoic acid receptor RXR-alpha; test: Inhibition of [3H]9-cis-RA binding to Retinoid X receptor RXR alpha
[15] = target: T4, Retinoic acid receptor gamma; settings: cv-1
[16] = target: T3, Retinoic acid receptor beta; settings: cv-1
[17] = target: T6, Retinoic acid receptor RXR-gamma; test: as §1; type: functional, cell-based

SMILES | Efficacy [1] [%] | pKi [2] | pKi [3] | pEC50 [4] | pKi [5] | pKi [6] | pEC50 [7] | pEC50 [8] | pKi [9] | EC50 [10] | pEC50 [11] | pEC50 [12] | Efficacy [13] [%] | pKi [14] | EC50 [15] | EC50 [16] | pEC50 [17]
CC(/C=C/[C@H]1CCC[C@@H]1c1ccc2c(c1)C(C)(C)CCC2(C)C)=C\C(=O)O | 70 | 8.22 | < 6.00 | 5.89 | < 6.00 | < 6.00 | 8.22 | 8.00 | 8.30 | Not Active | 6.20 | 8.10 | 110 | 8.52 | – | – | –
C=C(c1ccc(C(=O)O)cc1)c1cc2c(cc1C)C(C)(C)CCC2(C)C | 85 | – | – | – | – | – | – | – | – | – | – | – | – | – | – | – | –
CC(/C=C/[C@@H]1CCC[C@@H]1c1ccc2c(c1)C(C)(C)CCC2(C)C)=C\C(=O)O | 58 | 7.96 | < 6.00 | – | < 6.00 | < 6.00 | 7.60 | 7.54 | 7.59 | Not Active | – | 7.51 | 101 | 7.82 | Not Active | Not Active | –
CC(/C=C/[C@]1(C)CCCC1c1ccc2c(c1)C(C)(C)CCC2(C)C)=C\C(=O)O (single isomer, unassigned) | 38 | 8.00 | < 6.00 | – | < 6.00 | < 6.00 | 7.36 | 7.21 | 8.15 | Not Active | – | 7.21 | 50 | 8.40 | Not Active | Not Active | –
C=C1C[C@@H](/C=C/C(C)=C/C(=O)O)[C@@H](c2ccc3c(c2)C(C)(C)CCC3(C)C)C1 | 90 | 6.25 | < 6.00 | – | < 6.00 | < 6.00 | – | 6.66 | 6.79 | Not Active | – | 6.77 | 369 | 7.18 | Not Active | Not Active | 6.69
C=C1C[C@H](c2ccc3c(c2)C(C)(C)CCC3(C)C)[C@@H](/C=C/C(C)=C/C(=O)O)C1 | 99 | 6.60 | < 6.00 | 6.45 | < 6.00 | < 6.00 | 6.67 | 6.65 | 7.27 | Not Active | 6.25 | 6.72 | 169 | 7.42 | – | – | –
CC(/C=C/C1=C(c2ccc3c(c2)C(C)(C)CCC3(C)C)CCC1)=C\C(=O)O | 62 | 7.44 | < 6.00 | 5.94 | < 6.00 | < 6.00 | 7.40 | 7.38 | 7.24 | Not Active | 6.47 | 7.28 | 70 | 7.70 | – | – | –
CC(/C=C/C1=C(c2cc3c(cc2C)C(C)(C)CCC3(C)C)CCC1)=C\C(=O)O | 42 | 7.60 | < 6.00 | – | < 6.00 | < 6.00 | 6.89 | 6.72 | 7.66 | Not Active | – | 7.02 | 44 | 8.30 | Not Active | Not Active | –
CC(/C=C/[C@]12CCC[C@@]1(c1ccc3c(c1)C(C)(C)CCC3(C)C)C2)=C\C(=O)O | 77 | 8.00 | < 6.00 | 6.68 | < 6.00 | < 6.00 | 8.52 | 8.52 | 8.30 | Not Active | – | 8.40 | 92 | 8.52 | – | Not Active | –
CC(/C=C/[C@@]1(C)CCCC1c1ccc2c(c1)C(C)(C)CCC2(C)C)=C\C(=O)O (single isomer, unassigned) | 72 | 8.00 | < 6.00 | 5.75 | < 6.00 | < 6.00 | 7.80 | 7.85 | 8.15 | Not Active | 6.09 | 8.15 | 110 | 8.40 | – | – | –
